The target of assay [1] is T1, LAG3/MHCII (Homo sapiens, UniProt P18627).
T1 sequence (P18627 23-450 limits assumed): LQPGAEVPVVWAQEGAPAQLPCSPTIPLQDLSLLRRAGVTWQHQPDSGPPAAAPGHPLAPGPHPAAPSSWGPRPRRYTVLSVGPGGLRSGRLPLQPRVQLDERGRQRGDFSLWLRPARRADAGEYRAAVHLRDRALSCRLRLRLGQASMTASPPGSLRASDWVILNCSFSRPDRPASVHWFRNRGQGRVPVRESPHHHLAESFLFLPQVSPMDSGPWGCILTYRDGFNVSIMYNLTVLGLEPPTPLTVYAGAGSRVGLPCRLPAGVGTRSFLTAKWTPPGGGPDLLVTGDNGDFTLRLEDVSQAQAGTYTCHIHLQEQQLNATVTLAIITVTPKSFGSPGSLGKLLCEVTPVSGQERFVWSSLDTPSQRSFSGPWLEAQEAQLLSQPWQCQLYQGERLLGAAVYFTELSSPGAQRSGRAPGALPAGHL
The assay is described as follows: HTRF binding inhibition of LAG3 and its ligand MHCII. To be noted: for inhibition at 10 µM: compound at 10 µM, read-out: Inhibition rate; for IC50: binding inhibition LAG3/MHCII. The method, then: HTRF (Homogeneous time-resolved fluorescence) is based on two techniques, fluorescence resonance energy transfer (FRET) and time-resolved fluorescence (TRF). The detection was carried out using a 384-well plate. 2 µL of a compound to be tested with an appropriate concentration was collected, 4 µL of Tag1-LAG3 protein (with a final concentration of 10 nmol·L^-1) was added, 4 µL of Tag2-MHCII (with a final concentration of 20 nmol·L^-1) was added, and the plate was incubated at room temperature for 15 min. 10 µL of Anti-Tag1-Tb working solution (prepared by adding 25 µL of Anti-Tag1-Tab mother solution to 2475 µL of dilution buffer) was added, 10 µL of Anti-Tag2-XL665 working solution (prepared by adding 25 µL of Tag2-XL665 mother solution to 2475 µL of dilution buffer) was added, and the plate was sealed with a film and incubated at room temperature for 1 h. The detection was carried out using a Perkin Elma Envision instrument.

For assay [2], the target named is T2, Human LAG3 protein (Homo sapiens, UniProt P18627).
T2 sequence (P18627 23-525): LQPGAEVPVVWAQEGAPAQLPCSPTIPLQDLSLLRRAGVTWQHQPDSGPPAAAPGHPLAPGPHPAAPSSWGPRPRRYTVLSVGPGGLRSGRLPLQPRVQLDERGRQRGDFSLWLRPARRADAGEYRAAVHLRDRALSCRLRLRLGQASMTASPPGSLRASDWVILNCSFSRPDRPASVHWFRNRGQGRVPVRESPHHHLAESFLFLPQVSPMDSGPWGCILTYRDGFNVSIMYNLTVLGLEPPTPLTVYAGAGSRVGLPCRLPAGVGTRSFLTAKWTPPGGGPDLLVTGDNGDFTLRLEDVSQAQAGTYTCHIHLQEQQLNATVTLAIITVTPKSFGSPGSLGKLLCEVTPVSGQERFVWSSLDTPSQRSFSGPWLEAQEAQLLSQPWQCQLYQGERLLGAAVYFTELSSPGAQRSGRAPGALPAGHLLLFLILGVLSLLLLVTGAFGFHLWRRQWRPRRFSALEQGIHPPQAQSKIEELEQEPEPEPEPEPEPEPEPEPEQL
The assay is described as follows: SPR interaction assay, CM5 chip amino coupling, human LAG3. Type of assay: binding. The source says:
(§1) A surface plasmon is an electromagnetic wave on a metal surface and is generated by the interaction of photons and electrons which are freely vibrated. Surface plasmon resonance (SPR) is an optical phenomenon that occurs on the surfaces of two media, and such a phenomenon can be induced by photons or electrons. When light enters an optically thinner medium from an optically denser medium, the phenomenon of total reflection occurs, and an evanescent wave is generated and enters the optically thinner medium. When the totally reflected evanescent wave meets the plasmon wave on the metal surface, resonance may occur, the energy of the reflected light decreases, and a resonance peak occurs on the energy spectrum of the reflected light. Such a resonance is called surface plasmon resonance. The angle of incidence causing the surface plasmon resonance is called an SPR angle. An SPR biosensor provides a sensitive, non-labeled detection technique for monitoring intermolecular interactions in real time. The sensor detects the change in the SPR angle, and the SPR is related to the refractive index of the metal surface. When an analyte binds to the chip surface, the refractive index of the chip surface changes, thus causing the change in the SPR angle. This is the basic principle for the SPR biosensor to detect intermolecular interactions in real time. During the interaction analysis, the change in the SPR angle is recorded on the sensorgram in real time.
(§2) Through the information query, the theoretical isoelectric point of the LAG3 protein is about 9.82, and the amino coupling method was contemplated to immobilize the protein. Since the main ligands of the LAG3 protein are FGL1 and MHCII proteins, after the LAG3 protein was coupled, the FGL1 protein sampling method was used to verify the protein activity.
(§3) Protein coupling buffer solution: 1.05× PBS-P+; 1.02× PBS-P+
(§4) Interaction buffer solution: 1.0× PBS-P+, 5% DMSO; 1.0× PBS-P+, 2% DMSO
(§5) In this experiment, by using the CM5 chip amino coupling method, the human LAG3 protein was immobilized to the Fc2 or Fc3 channel, and the mouse LAG3 protein was immobilized to the Fc3 or Fc4 channel.
(§6) LAG3 protein coupling conditions were as follows: the concentration was about 25 µg/mL, the system was sodium acetate solution with a pH of 5.5, the chip activation time was 420 s, and the blocking time was 420 s.
(§7) LAG3 protein coupling conditions were as follows: the concentration was about 50 µg/mL, the system was sodium acetate solution with a pH of 4.5, the chip activation time was 420 s, and the blocking time was 420 s.

For assay [3], the target named is T3, Mouse LAG3 protein (Mus musculus, UniProt Q61790).
T3 sequence (Q61790 24-521): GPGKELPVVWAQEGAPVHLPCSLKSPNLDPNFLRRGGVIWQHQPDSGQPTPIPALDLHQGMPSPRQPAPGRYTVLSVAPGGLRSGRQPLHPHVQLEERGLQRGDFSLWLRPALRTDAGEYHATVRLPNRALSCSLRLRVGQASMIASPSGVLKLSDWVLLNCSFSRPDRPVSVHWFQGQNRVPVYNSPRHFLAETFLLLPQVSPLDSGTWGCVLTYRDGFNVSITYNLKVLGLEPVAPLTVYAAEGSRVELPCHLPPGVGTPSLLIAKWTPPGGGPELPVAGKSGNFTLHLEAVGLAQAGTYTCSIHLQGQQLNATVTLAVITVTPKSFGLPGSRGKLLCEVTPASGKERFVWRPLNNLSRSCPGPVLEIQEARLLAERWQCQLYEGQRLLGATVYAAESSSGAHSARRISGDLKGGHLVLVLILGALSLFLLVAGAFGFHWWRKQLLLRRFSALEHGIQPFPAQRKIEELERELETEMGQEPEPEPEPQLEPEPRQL
Description: SPR interaction assay, CM5 chip amino coupling, mouse LAG3. Type of assay: binding.
Excerpt: as §1, §2, §3, §4, §5, §6, §7

For assay [4], the target named is T4, Human FGL1 protein (Homo sapiens, UniProt Q08830).
T4 sequence (Q08830 23-312): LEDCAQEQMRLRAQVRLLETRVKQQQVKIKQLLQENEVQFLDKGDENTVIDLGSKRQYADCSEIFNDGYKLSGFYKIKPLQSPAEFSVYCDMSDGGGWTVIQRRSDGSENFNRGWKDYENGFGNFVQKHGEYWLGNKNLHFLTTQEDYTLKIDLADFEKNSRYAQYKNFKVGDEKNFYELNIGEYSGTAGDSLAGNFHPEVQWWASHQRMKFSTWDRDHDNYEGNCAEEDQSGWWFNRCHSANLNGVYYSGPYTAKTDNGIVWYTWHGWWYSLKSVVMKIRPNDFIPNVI
Description: SPR interaction assay, human FGL1. Type of assay: binding. To be noted: SPR.
Excerpt: as §1, §3, §4

SMILES strings stand for the structures. Where only a bound is given, the exact number is not on record here.

Consider `COc1ccc2cc1-c1cc(ccc1OC)C(=O)CCCCCC2=O` [Compound 1, 1^6,2^6-dimethoxy-1,2(1,3)-diphenylcyclononane-3,9-dione], for which the inhibition (in general, the change of the read-out against control, counted positive when it falls) at 10 µM in assay [1] came to 25.7%.

Regarding `O=C1CCCCCC(=O)c2ccc(O)c(c2)-c2cc1ccc2O` [Compound 2, 1^6,2^6-dihydroxy-1,2(1,3)-diphenylcyclononane-3,9-dione], the inhibition at 10 µM in assay [1] is 45.9%.

On to `O=C1CCCCCC(=O)c2ccc(OC3CCCC3)c(c2)-c2cc1ccc2O` [Compound 3], for which the IC50 (as a rule, the concentration at which inhibition is half-maximal) in assay [1] was 24.2 µM.

With `CCCCCOc1ccc2cc1-c1cc(ccc1OCCCCC)C(=O)CCCCCC2=O` [Compound 5], the half-inhibitory concentration (IC50) in assay [1] came out at 33.2 µM.

As to `CCCCCCCOc1ccc2cc1-c1cc(ccc1OCCCCCCC)C(=O)CCCCCC2=O` [Compound 6], the IC50 in assay [1] was determined as 25.7 µM.

With `COCCCCOc1ccc2cc1-c1cc(ccc1OCCCCOC)C(=O)CCCCCC2=O` [Compound 7], the IC50 in assay [1] was 35.4 µM.

Turning to `CCCCCCOc1ccc(C(=O)O)cc1-c1cc(C(=O)NCCCNC(=O)C(F)(F)F)ccc1OCCCCCC` [Compound 9], the concentration for half-maximal inhibition (IC50) in assay [1] stood at 5.67 µM. Moreover, the “interaction with the human LAG3 protein” value in assay [2] was “interacts with the human LAG3 protein”. Also, the values for the Rmax in assay [2] (ligand Human LAG3 protein), in assay [3] (ligand Mouse LAG3 protein) and in assay [4] (ligand FGL1 protein) were 129.5 RU, 8.130 E+4 RU and 3.346 E+5 RU, respectively. In addition, the dissociation constant Kd (commonly the free concentration of one partner at which half of the binding sites on the other are occupied at equilibrium, for simple one-to-one binding) in assay [2] (ligand Human LAG3 protein, Compound 9 fitted in steady-state mode) is 324 µM. Besides, the Note result in assay [2] (ligand Human LAG3 protein, bound or not bound) was “Bound”; in assay [3] (ligand Mouse LAG3 protein, bound or not bound), “Not bound”; in assay [4] (ligand FGL1 protein, bound or not bound), “Not bound”. For the same compound, the “interaction with the mouse LAG3 protein” value in assay [3] was “does not interact with the mouse LAG3 protein”. Moreover, the “interaction with the human FGL1 protein” value in assay [4] was “does not interact with the human FGL1 protein”.

For the compound `CCCCCCOc1ccc(C(=O)O)cc1-c1cc(C(=O)NCCCCCNC(=O)C(F)(F)F)ccc1OCCCCCC` [Compound 10], the IC50 in assay [1] turned out to be 9.91 µM.

Regarding `CCCCCCOc1ccc(C(=O)O)cc1-c1cc(C(=O)NCCNC(=O)C(F)(F)F)ccc1OCCCCCC` [Compound 11], the half-maximal inhibitory concentration (IC50) in assay [1] stood at 7.96 µM.

In turn, `CCCCCCOc1ccc(C(=O)NCCCCN)cc1-c1cc(C(=O)OC)ccc1OCCCCCC` [Compound 12] came in with a concentration for half-maximal inhibition (IC50) in assay [1] of more than 100 µM.

The values above are taken from patent publication EP4527828A1, “BIPHENYL COMPOUND, PHARMACEUTICAL COMPOSITION, METHOD FOR PREPARING SAME, AND USE THEREOF” (Longivitron (Suzhou) Biotechnology Co., Ltd, priority 2022, dated 2023).
